What was measured:
Experiment in all cases: relative viability (nuclei count vs DMSO), 5 days (fraction); higher = more cells survive
Bromopyruvate + AZD7762 = compound: C(C(=O)C(=O)O)Br [Bromopyruvate] + NC(=O)Nc1cc(-c2cccc(F)c2)sc1C(=O)N[C@H]1CCCNC1 [AZD7762] (partner 0.2 µM)
Summary of the method: (§1)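 Each reported value is a median over duplicate plates. It expresses relative viability: treated-well nuclei count divided by vehicle-well nuclei count. Lung cancer cell lines in 1536-well plates were dosed by pin tool a day after seeding, alone with one drug or with a fixed anchor-drug dose plus five library-drug doses (not always all listed) in √10 steps, and nuclei were counted after 5 days.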

[1] = compound: C(C(=O)C(=O)O)Br [Bromopyruvate] + CC(=O)c1c(C)c2cnc(Nc3ccc(N4CCNCC4)cn3)nc2n(C2CCCC2)c1=O [Palbociclib] (partner 0.5 µM)
Summary of the method: as §1

[2] = compound: CC(O)(CS(=O)(=O)c1ccc(F)cc1)C(=O)Nc1ccc(C#N)c(C(F)(F)F)c1 [Bicalutamide] + CC(=O)c1c(C)c2cnc(Nc3ccc(N4CCNCC4)cn3)nc2n(C2CCCC2)c1=O [Palbociclib] (partner 0.5 µM)
Summary of the method: as §1

[3] = compound: C(C(=O)C(=O)O)Br [Bromopyruvate] + CCNC(=O)c1noc(-c2cc(C(C)C)c(O)cc2O)c1-c1ccc(CN2CCOCC2)cc1 [Luminespib] (partner 0.01 µM)
Summary of the method: as §1

HCC-44
relative viability (Bromopyruvate + AZD7762; first compound 1 µM): 0.959 | relative viability (Bromopyruvate + AZD7762; first compound 3.162 µM): 1.01 | relative viability (Bromopyruvate + AZD7762; first compound 10 µM): 0.963 | relative viability (Bromopyruvate + AZD7762; first compound 31.62 µM): 1.02 | relative viability (Bromopyruvate + AZD7762; first compound 100 µM): 1.04 | relative viability ([1]; first compound 1 µM): 0.985 | relative viability ([1]; first compound 3.162 µM): 0.912 | relative viability ([1]; first compound 10 µM): 0.944 | relative viability ([1]; first compound 31.62 µM): 1.01 | relative viability ([1]; first compound 100 µM): 0.991 | relative viability ([2]; first compound 0.08 µM): 0.953 | relative viability ([2]; first compound 0.253 µM): 1.03 | relative viability ([2]; first compound 0.8 µM): 1.04 | relative viability ([2]; first compound 2.53 µM): 0.944 | relative viability ([3]; first compound 1 µM): 1.09 | relative viability ([3]; first compound 3.162 µM): 1.12 | relative viability ([3]; first compound 10 µM): 1.54 | relative viability ([3]; first compound 31.62 µM): 0.968 | relative viability ([3]; first compound 100 µM): 0.948

HCC-827
relative viability (Bromopyruvate + AZD7762; first compound 1 µM): 0.175 | relative viability (Bromopyruvate + AZD7762; first compound 3.162 µM): 0.195 | relative viability (Bromopyruvate + AZD7762; first compound 10 µM): 0.198 | relative viability (Bromopyruvate + AZD7762; first compound 31.62 µM): 0.203 | relative viability (Bromopyruvate + AZD7762; first compound 100 µM): 0.19 | relative viability ([1]; first compound 1 µM): 0.434 | relative viability ([1]; first compound 3.162 µM): 0.542 | relative viability ([1]; first compound 10 µM): 0.472 | relative viability ([1]; first compound 31.62 µM): 0.541 | relative viability ([1]; first compound 100 µM): 0.517 | relative viability ([2]; first compound 0.08 µM): 0.499 | relative viability ([2]; first compound 0.253 µM): 0.389 | relative viability ([2]; first compound 0.8 µM): 0.496 | relative viability ([2]; first compound 2.53 µM): 0.476 | relative viability ([3]; first compound 1 µM): 0.684 | relative viability ([3]; first compound 3.162 µM): 0.607 | relative viability ([3]; first compound 10 µM): 1.01 | relative viability ([3]; first compound 31.62 µM): 0.886 | relative viability ([3]; first compound 100 µM): 0.619

NCI-H1623
relative viability ([3]; first compound 1 µM): 0.545 | relative viability ([3]; first compound 3.162 µM): 0.523 | relative viability ([3]; first compound 10 µM): 0.747 | relative viability ([3]; first compound 31.62 µM): 0.489 | relative viability ([3]; first compound 100 µM): 0.504

NCI-H2405
relative viability (Bromopyruvate + AZD7762; first compound 1 µM): 0.998 | relative viability (Bromopyruvate + AZD7762; first compound 3.162 µM): 0.888 | relative viability (Bromopyruvate + AZD7762; first compound 10 µM): 0.887 | relative viability (Bromopyruvate + AZD7762; first compound 100 µM): 0.254 | relative viability ([1]; first compound 1 µM): 0.51 | relative viability ([1]; first compound 3.162 µM): 0.53 | relative viability ([1]; first compound 10 µM): 0.549 | relative viability ([1]; first compound 100 µM): 0.458 | relative viability ([2]; first compound 0.08 µM): 0.555 | relative viability ([2]; first compound 0.253 µM): 0.506 | relative viability ([2]; first compound 0.8 µM): 0.581 | relative viability ([2]; first compound 2.53 µM): 0.486 | relative viability ([3]; first compound 1 µM): 0.719 | relative viability ([3]; first compound 3.162 µM): 0.643 | relative viability ([3]; first compound 10 µM): 0.738 | relative viability ([3]; first compound 31.62 µM): 0.741 | relative viability ([3]; first compound 100 µM): 0.675

PC-3 [JPC-3]
relative viability (Bromopyruvate + AZD7762; first compound 1 µM): 0.903 | relative viability (Bromopyruvate + AZD7762; first compound 10 µM): 0.933 | relative viability (Bromopyruvate + AZD7762; first compound 100 µM): 0.638 | relative viability ([1]; first compound 1 µM): 0.548 | relative viability ([1]; first compound 10 µM): 0.537 | relative viability ([1]; first compound 100 µM): 0.536 | relative viability ([2]; first compound 0.08 µM): 0.556 | relative viability ([2]; first compound 0.253 µM): 0.576 | relative viability ([2]; first compound 0.8 µM): 0.567 | relative viability ([2]; first compound 2.53 µM): 0.552 | relative viability ([3]; first compound 1 µM): 0.797 | relative viability ([3]; first compound 3.162 µM): 0.752 | relative viability ([3]; first compound 10 µM): 0.766 | relative viability ([3]; first compound 31.62 µM): 0.608 | relative viability ([3]; first compound 100 µM): 0.693

NCI-H1651
relative viability (Bromopyruvate + AZD7762; first compound 1 µM): 0.441 | relative viability (Bromopyruvate + AZD7762; first compound 3.162 µM): 0.491 | relative viability (Bromopyruvate + AZD7762; first compound 10 µM): 0.474 | relative viability (Bromopyruvate + AZD7762; first compound 31.62 µM): 0.403 | relative viability (Bromopyruvate + AZD7762; first compound 100 µM): 0.4 | relative viability ([1]; first compound 1 µM): 0.479 | relative viability ([1]; first compound 3.162 µM): 0.477 | relative viability ([1]; first compound 10 µM): 0.542 | relative viability ([1]; first compound 31.62 µM): 0.519 | relative viability ([1]; first compound 100 µM): 0.492 | relative viability ([2]; first compound 0.08 µM): 0.526 | relative viability ([2]; first compound 0.253 µM): 0.515 | relative viability ([2]; first compound 0.8 µM): 0.582 | relative viability ([2]; first compound 2.53 µM): 0.518 | relative viability ([3]; first compound 1 µM): 0.853 | relative viability ([3]; first compound 3.162 µM): 0.848 | relative viability ([3]; first compound 10 µM): 0.929 | relative viability ([3]; first compound 31.62 µM): 0.811 | relative viability ([3]; first compound 100 µM): 1.01

HARA
relative viability (Bromopyruvate + AZD7762; first compound 1 µM): 1.98 | relative viability (Bromopyruvate + AZD7762; first compound 3.162 µM): 0.393 | relative viability (Bromopyruvate + AZD7762; first compound 31.62 µM): 0.298 | relative viability (Bromopyruvate + AZD7762; first compound 100 µM): 0.289 | relative viability ([1]; first compound 1 µM): 0.254 | relative viability ([1]; first compound 3.162 µM): 0.283 | relative viability ([1]; first compound 10 µM): 0.296 | relative viability ([1]; first compound 31.62 µM): 0.259 | relative viability ([1]; first compound 100 µM): 0.261 | relative viability ([2]; first compound 0.08 µM): 0.246 | relative viability ([2]; first compound 0.253 µM): 0.262 | relative viability ([2]; first compound 0.8 µM): 0.329 | relative viability ([2]; first compound 2.53 µM): 0.242 | relative viability ([3]; first compound 1 µM): 0.707 | relative viability ([3]; first compound 3.162 µM): 0.939 | relative viability ([3]; first compound 10 µM): 0.486 | relative viability ([3]; first compound 31.62 µM): 0.75 | relative viability ([3]; first compound 100 µM): 0.802

NCI-H1650
relative viability ([1]; first compound 1 µM): 0.328 | relative viability ([1]; first compound 3.162 µM): 0.328 | relative viability ([1]; first compound 10 µM): 0.309 | relative viability ([1]; first compound 31.62 µM): 0.368 | relative viability ([1]; first compound 100 µM): 0.345 | relative viability ([2]; first compound 0.08 µM): 0.435 | relative viability ([2]; first compound 0.253 µM): 0.314 | relative viability ([2]; first compound 0.8 µM): 0.464 | relative viability ([2]; first compound 2.53 µM): 0.355 | relative viability ([3]; first compound 1 µM): 0.19 | relative viability ([3]; first compound 3.162 µM): 0.224 | relative viability ([3]; first compound 10 µM): 0.186 | relative viability ([3]; first compound 31.62 µM): 0.177 | relative viability ([3]; first compound 100 µM): 0.182

NCI-H1395
relative viability (Bromopyruvate + AZD7762; first compound 1 µM): 0.447 | relative viability (Bromopyruvate + AZD7762; first compound 3.162 µM): 0.398 | relative viability (Bromopyruvate + AZD7762; first compound 10 µM): 0.426 | relative viability (Bromopyruvate + AZD7762; first compound 31.62 µM): 0.414 | relative viability (Bromopyruvate + AZD7762; first compound 100 µM): 0.42 | relative viability ([1]; first compound 1 µM): 0.551 | relative viability ([1]; first compound 3.162 µM): 0.531 | relative viability ([1]; first compound 10 µM): 0.724 | relative viability ([1]; first compound 31.62 µM): 0.614 | relative viability ([1]; first compound 100 µM): 0.662 | relative viability ([2]; first compound 0.08 µM): 0.645 | relative viability ([2]; first compound 0.253 µM): 0.624 | relative viability ([2]; first compound 0.8 µM): 0.639 | relative viability ([2]; first compound 2.53 µM): 0.568 | relative viability ([3]; first compound 1 µM): 0.661 | relative viability ([3]; first compound 3.162 µM): 0.705 | relative viability ([3]; first compound 10 µM): 0.932 | relative viability ([3]; first compound 31.62 µM): 0.754 | relative viability ([3]; first compound 100 µM): 0.992

NCI-H1993
relative viability (Bromopyruvate + AZD7762; first compound 1 µM): 0.821 | relative viability (Bromopyruvate + AZD7762; first compound 3.162 µM): 0.872 | relative viability (Bromopyruvate + AZD7762; first compound 10 µM): 0.994 | relative viability (Bromopyruvate + AZD7762; first compound 31.62 µM): 0.851 | relative viability (Bromopyruvate + AZD7762; first compound 100 µM): 0.982 | relative viability ([1]; first compound 1 µM): 0.536 | relative viability ([1]; first compound 3.162 µM): 0.661 | relative viability ([1]; first compound 10 µM): 0.813 | relative viability ([1]; first compound 31.62 µM): 0.629 | relative viability ([1]; first compound 100 µM): 0.775 | relative viability ([2]; first compound 0.08 µM): 0.642 | relative viability ([2]; first compound 0.253 µM): 0.513 | relative viability ([2]; first compound 0.8 µM): 0.793 | relative viability ([2]; first compound 2.53 µM): 0.772 | relative viability ([3]; first compound 1 µM): 0.483 | relative viability ([3]; first compound 3.162 µM): 0.997 | relative viability ([3]; first compound 10 µM): 1.26 | relative viability ([3]; first compound 31.62 µM): 0.862 | relative viability ([3]; first compound 100 µM): 0.833
